Results published in US6403563B1, “Antitumor composition containing a synergistic combination of an anthracycline derivative with a camptothecin derivate” (Pharmacia & Upjohn S.p.A., priority 1998, dated 2002).
“And” between values parts separate entries of the source, which are not always exact repeats. Identical values can stand only once.

Experiments:
[1] = test system: disseminated L1210 murine leukemia; assay: Antileukemic activity against disseminated L1210 leukemia in mice; format: in vivo
Text: For these experiments Ia was solubilized in [Cremophor®/EtOH=6.5:3.5]/[normal saline]=20/80 v/v, while CPT-11 was solubilized in water.

[2] = Crossing of the blood brain barrier
[3] = test system: intracranially implanted P388 tumor cells; assay: Activity against intracranially transplanted P388 murine leukemia; format: in vivo, mice
Experimental: Brain tumors/metastases are generally unresponsive largely because cytotoxic drugs fail to cross the blood brain barrier. […] The compound was administered i.v. on days 1,5,9. Results reported in Tab.

[4] = Ia alone 2.9 mg/kg/day iv day +3
[5] = Ia alone 3.8 mg/kg/day iv day +3
[6] = CPT-11 alone 20 mg/kg/day iv days +1,2

SMILES | ILS % (increase in life span) [1, 4] [%] | LTS (Long Term Survivors >60 days) [1, 4] | Tox (number of toxic deaths/number of mice) [1, 4] | ILS % (increase in life span) [1, 5] [%] | LTS (Long Term Survivors >60 days) [1, 5] | Tox (number of toxic deaths/number of mice) [1, 5] | crossing of the blood brain barrier [2] | Tox (number of toxic deaths/number of mice) ([3]; Ia 2.1 mg/kg/day i.v. days 1, 5, 9) | ILS % (increase in life span) ([3]; Ia 2.1 mg/kg/day i.v. days 1, 5, 9, P388 10^4/mouse intracranially day 0) [%] | Tox (number of toxic deaths/number of mice) ([3]; Ia 2.7 mg/kg/day i.v. days 1, 5, 9) | ILS % (increase in life span) ([3]; Ia 2.7 mg/kg/day i.v. days 1, 5, 9 (optimal cumulative dose 8.1 mg/kg)) [%] | LTS (Long Term Survivors >60 days) [1, 6] | Tox (number of toxic deaths/number of mice) [1, 6] | ILS % (increase in life span) ([1]; CPT-11 alone 20 mg/kg/day iv days +1,2, L1210 10^5/mouse iv day 0) [%]
CC(=O)C1(O)Cc2c(O)c3c(c(O)c2C(OC2CC(N4CC4)C(OS(C)(=O)=O)C(C)O2)C1)C(=O)c1ccccc1C3=O (centres unmarked) [Ia, 4-demethoxy-3′-deamino-3′-aziridinyl-4′-methansulfonyl daunorubicin] | 92 | 0/10 | without toxicity and 0/10 | 108 | 0/10 | without toxicity and 0/10 | crosses the blood brain barrier | 0/20 | 44 | 1/20 | 46 |  |  | 
CCc1c2c(nc3ccc(OC(=O)N4CCC(N5CCCCC5)CC4)cc13)-c1cc3c(c(=O)n1C2)COC(=O)[C@]3(O)CC [CPT-11, Irinotecan, reference compound] |  |  |  |  |  |  |  |  |  |  |  | 1/10 | without toxicity and 0/10 | 100
